Laboratory results from PubChem BioAssay (NCI).
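Assay format: 96-well plates, 48-hour exposure. GI50: concentration for 50% inhibition of growth. TGI marks complete inhibition of growth.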

Tests used:
Assay in all cases: growth of human tumour cells (NCI), 48 h
UACC-62 melanoma = system: UACC-62 melanoma
IGROV1 ovarian = system: IGROV1 ovarian
NCI/ADR-RES ovarian = system: NCI/ADR-RES ovarian
DU-145 prostate = system: DU-145 prostate
HT29 colon = system: HT29 colon
U251 CNS = system: U251 CNS
TK-10 renal = system: TK-10 renal
A549 NSCLC = system: A549 NSCLC
786-0 renal = system: 786-0 renal
HOP-62 NSCLC = system: HOP-62 NSCLC
MALME-3M melanoma = system: MALME-3M melanoma
MDA-MB-435 = system: MDA-MB-435
UACC-257 melanoma = system: UACC-257 melanoma
MDA-MB-231 breast = system: MDA-MB-231 breast
ACHN renal = system: ACHN renal
HS 578T breast = system: HS 578T breast
SNB-75 CNS = system: SNB-75 CNS
T-47D breast = system: T-47D breast
HCT-15 colon = system: HCT-15 colon
OVCAR-8 ovarian = system: OVCAR-8 ovarian
LOX IMVI melanoma = system: LOX IMVI melanoma
CCRF-CEM leukemia = system: CCRF-CEM leukemia
SR leukemia = system: SR leukemia
HCT-116 colon = system: HCT-116 colon
COLO 205 colon = system: COLO 205 colon
RXF 393 renal = system: RXF 393 renal
OVCAR-3 ovarian = system: OVCAR-3 ovarian
OVCAR-5 ovarian = system: OVCAR-5 ovarian
BT-549 breast = system: BT-549 breast
RPMI-8226 leukemia = system: RPMI-8226 leukemia
NCI-H460 lung = system: NCI-H460 lung
HCC-2998 colon = system: HCC-2998 colon
M14 melanoma = system: M14 melanoma
SF-295 CNS = system: SF-295 CNS
KM12 colon = system: KM12 colon
HOP-92 NSCLC = system: HOP-92 NSCLC
MCF7 breast = system: MCF7 breast
NCI-H23 lung = system: NCI-H23 lung
PC-3 prostate = system: PC-3 prostate
NCI-H522 lung = system: NCI-H522 lung
SW-620 colon = system: SW-620 colon
EKVX NSCLC = system: EKVX NSCLC
SK-OV-3 ovarian = system: SK-OV-3 ovarian
UO-31 renal = system: UO-31 renal
OVCAR-4 ovarian = system: OVCAR-4 ovarian
SF-539 CNS = system: SF-539 CNS
HL-60(TB) leukemia = system: HL-60(TB) leukemia
SK-MEL-5 melanoma = system: SK-MEL-5 melanoma
K-562 leukemia = system: K-562 leukemia
A498 renal = system: A498 renal
CAKI-1 renal = system: CAKI-1 renal
NCI-H226 lung = system: NCI-H226 lung
SNB-19 CNS = system: SNB-19 CNS
SF-268 CNS = system: SF-268 CNS
SN12C renal = system: SN12C renal
SK-MEL-28 melanoma = system: SK-MEL-28 melanoma

## Cc1cc(C)n(C(=O)c2nn(-c3ccc(Cl)cc3)cc2O)n1
UACC-62 melanoma
  GI50: 3.46 µM
  TGI: 18.6 µM
IGROV1 ovarian
  GI50: 3.16 µM
  TGI: 73.3 µM
NCI/ADR-RES ovarian
  GI50: 4.42 µM
  TGI: > 100 µM
DU-145 prostate
  GI50: 6.23 µM
  TGI: > 100 µM
HT29 colon
  GI50: 32.9 µM
  TGI: > 100 µM
U251 CNS
  GI50: 2.68 µM
  TGI: > 100 µM
TK-10 renal
  GI50: 4.71 µM
  TGI: > 100 µM
A549 NSCLC
  GI50: 3.72 µM
  TGI: > 100 µM
786-0 renal
  GI50: 9.64 µM
  TGI: > 100 µM
HOP-62 NSCLC
  GI50: 5.21 µM
  TGI: 79.4 µM
MALME-3M melanoma
  GI50: 4.59 µM
  TGI: 57.6 µM
MDA-MB-435
  GI50: 3.94 µM
  TGI: > 100 µM
UACC-257 melanoma
  GI50: 16.6 µM
  TGI: > 100 µM
MDA-MB-231 breast
  GI50: 8.8 µM
  TGI: > 100 µM
ACHN renal
  GI50: 3.77 µM
  TGI: > 100 µM
HS 578T breast
  GI50: 3.21 µM
  TGI: > 100 µM
SNB-75 CNS
  GI50: 3.52 µM
  TGI: 73.1 µM
T-47D breast
  GI50: 3.67 µM
  TGI: > 100 µM
HCT-15 colon
  GI50: 3.53 µM
  TGI: > 100 µM
OVCAR-8 ovarian
  GI50: 5.96 µM
  TGI: > 100 µM
LOX IMVI melanoma
  GI50: 3.94 µM
  TGI: > 100 µM
CCRF-CEM leukemia
  GI50: 3.66 µM
  TGI: 54.5 µM
SR leukemia
  GI50: > 100 µM
  TGI: > 100 µM
HCT-116 colon
  GI50: 3.42 µM
  TGI: 48.2 µM
COLO 205 colon
  GI50: 18.5 µM
  TGI: 48.1 µM
RXF 393 renal
  GI50: 4.58 µM
  TGI: > 100 µM
OVCAR-3 ovarian
  GI50: 12.7 µM
  TGI: 87.7 µM
OVCAR-5 ovarian
  GI50: 4.98 µM
  TGI: > 100 µM
BT-549 breast
  GI50: 2.19 µM
  TGI: 26.3 µM
RPMI-8226 leukemia
  GI50: 3.34 µM
  TGI: 17 µM
NCI-H460 lung
  GI50: 2.38 µM
  TGI: 6.04 µM
HCC-2998 colon
  GI50: 15.1 µM
  TGI: > 100 µM
M14 melanoma
  GI50: 4.69 µM
  TGI: > 100 µM
SF-295 CNS
  GI50: 1.81 µM
  TGI: 6.73 µM
KM12 colon
  GI50: 5.07 µM
  TGI: > 100 µM
HOP-92 NSCLC
  GI50: 4.52 µM
  TGI: > 100 µM
MCF7 breast
  GI50: 4.52 µM
  TGI: > 100 µM
NCI-H23 lung
  GI50: 3.31 µM
  TGI: > 100 µM
PC-3 prostate
  GI50: 7.05 µM
  TGI: > 100 µM
NCI-H522 lung
  GI50: 7.37 µM
  TGI: 50.7 µM
SW-620 colon
  GI50: 8.02 µM
  TGI: > 100 µM
EKVX NSCLC
  GI50: 4.87 µM
  TGI: > 100 µM
SK-OV-3 ovarian
  GI50: 7.04 µM
  TGI: 66.1 µM
UO-31 renal
  GI50: 3.01 µM
  TGI: 19.2 µM
OVCAR-4 ovarian
  GI50: 9.19 µM
  TGI: > 100 µM
SF-539 CNS
  GI50: 3.05 µM
  TGI: 35.1 µM
HL-60(TB) leukemia
  GI50: 39.6 µM
  TGI: > 100 µM
SK-MEL-5 melanoma
  GI50: 6.76 µM
  TGI: 23.3 µM
K-562 leukemia
  GI50: > 100 µM
  TGI: > 100 µM
A498 renal
  GI50: 2.9 µM
  TGI: 8.77 µM
CAKI-1 renal
  GI50: 4.23 µM
  TGI: 42.3 µM
NCI-H226 lung
  GI50: 4.66 µM
  TGI: 98.9 µM
SNB-19 CNS
  GI50: 3.6 µM
  TGI: > 100 µM
SF-268 CNS
  GI50: 4.13 µM
  TGI: > 100 µM
SN12C renal
  GI50: 3.37 µM
  TGI: > 100 µM
SK-MEL-28 melanoma
  GI50: 6.28 µM
  TGI: > 100 µM
